In patent publication US20260085082A1, “KDM1A INHIBITORS FOR THE TREATMENT OF DISEASE” (Imago Biosciences, Inc., priority 2022, published 2026):
Like-named read-outs stand apart in the source and are kept apart here.

Assays:
MV4;11 cells = experiment: Cell Titer-Glo Luminescent Cell Viability Assay, cell growth inhibition against MV4;11 cells; assay type: cell-based; details: Homo sapiens
Description: Cell growth inhibition against MV4;11 cells was confirmed for the synthetic compounds. The Cell Titer-Glo Luminescent Cell Viability Assay (Promega, USA) was used to determine the number of viable cells in culture based on quantitation of the ATP present, which signals the presence of metabolically active cells. This assay was run in a 96-well plate format arrayed in a 10-point dose curve, ranging from 0 to 50 μM with 4-fold dilutions for each compound. Cells are seeded on Day 0 at 3750 cells per well. At Day 5, a portion of each well is assayed for viability according to the Cell Titer-Glo protocol. Briefly, cells/plates were centrifuged at 1100×g for 5 minutes. 100 μL of media was removed from each well and replaced with 100 μL of CellTiter-Glo. The plates were shaken at room temperature for 10 minutes and measured on a luminescence plate reader. Another portion of each well from the Day 5 plate is used to seed a new 96 plate containing fresh compound and media set up in the equivalent 10-point dose curve array in order to continue the cell growth inhibition assay for another 5 days. A final timepoint is collected at Day 10 using the Cell Titer-Glo protocol. Luminescence was detected on an EnVision® Multilabel Plate Reader (Perkin Elmer, Waltham, Mass.) and IC50 determination was made using Graph Pad Prism software.

LSD1 = LSD1 (Homo sapiens, UniProt O60341); experiment: LSD1 10-dose IC50 fluorescence coupling enzyme assay (HRP/Amplex Red, resorufin); assay type: biochemical; details: 10 M histone H3(1-21)K4me2 peptide substrate; 3-fold serial dilution in duplicate starting at 100 μM
Description: Compounds were tested in a 10-dose IC50 mode fluorescence coupling enzyme assay with 3-fold serial dilution in duplicate starting at 100 μM. The production of FAD-dependent H2O2 as a result of demethylase activity of LSD1 on […] histone H3(1-21)K4me2 peptide substrate was measured by coupling with HRP and Amplex Red to yield resorufin (fluorescence measured at Ex/Em=535/590 nm on EnVision, Perkin Elmer).

[1] = MV4-11, 120 h, MV4;11 cells, Day 5, 10-point dose curve 0 to 50 μM, read-out: Cell Titer Glo IC50 (5 d)
[2] = MV4-11, MV4;11 cells, Day 10 (re-seeded at Day 5 with fresh compound), 10-point dose curve 0 to 50 μM, read-out: Cell Titer Glo IC50 (10 d)

Row | SMILES | IC50 (MV4;11 cells; [1]) [nM] | IC50 (LSD1) [nM] | IC50 (MV4;11 cells; [2]) [nM]
1 | COc1ccc(-n2nc(C(=O)N[C@H]3CCNC3)cc2-c2ccc(C#N)c(F)c2)cc1 [Example 26, (S)-5-(4-cyano-3-fluorophenyl)-1-(4-methoxyphenyl)-N-(pyrrolidin-3-yl)-1H-pyrazole-3-carboxamide 2,2,2-trifluoroacetate] | 1000 to 10000 | 500 to 1000 | 
2 | N#Cc1ccc(-c2cc(C(=O)N3CCC[C@@H](N)C3)nn2-c2ccc(N3CCC(OCCCO)CC3)cc2)cc1F [Example 69, (R)-4-(3-(3-Aminopiperidine-1-carbonyl)-1-(4-(4-(3-hydroxypropoxy)piperidin-1-yl)phenyl)-1H-pyrazol-5-yl)-2-fluorobenzonitrile 2,2,2-trifluoroacetate] |  | < 500 | < 500
3 | COc1ccc(-n2nc(C(=O)NC3CCNC3)cc2-c2ccc(C#N)c(F)c2)cc1 (stereo not drawn) [Example 21, 5-(4-Cyano-3-fluorophenyl)-1-(4-methoxyphenyl)-N-(pyrrolidin-3-yl)-1H-pyrazole-3-carboxamide] | 1000 to 10000 | 500 to 1000 | 
4 | CN1CCN(c2ccc(-n3nc(C(=O)N4CCC[C@@H](N)C4)cc3-c3ccc(C#N)c(F)c3)nc2)CC1 [Example 54, (R)-4-(3-(3-aminopiperidine-1-carbonyl)-1-(5-(4-methylpiperazin-1-yl)pyridin-2-yl)-1H-pyrazol-5-yl)-2-fluorobenzonitrile 2,2,2-trifluoroacetate] |  | 1000 to 10000 | 1000 to 10000
5 | Cc1ccc(-n2nc(C(=O)NC3CCNC3)cc2-c2ccc(C#N)c(F)c2)cc1 (stereo not drawn) [Example 10, 5-(4-Cyano-3-fluorophenyl)-N-(pyrrolidin-3-yl)-1-(p-tolyl)-1H-pyrazole-3-carboxamide] | 1000 to 10000 | 500 to 1000 | 
6 | COc1ccc(Cn2nc(C(=O)N3CCC[C@@H](N)C3)cc2-c2ccc(C#N)c(F)c2)cc1 [Example 33, (R)-4-(3-(3-aminopiperidine-1-carbonyl)-1-(4-methoxybenzyl)-1H-pyrazol-5-yl)-2-fluorobenzonitrile 2,2,2-trifluoroacetate] | < 500 | < 500 | 
7 | COc1ccc(-n2nc(C(=O)N3CCC[C@H](N)C3)cc2-c2ccc(C#N)c(F)c2)cc1F [Example 37, (S)-4-(3-(3-aminopiperidine-1-carbonyl)-1-(3-fluoro-4-methoxyphenyl)-1H-pyrazol-5-yl)-2-fluorobenzonitrile] | 1000 to 10000 | 500 to 1000 | 
8 | CN1CCN(c2ccc(-n3nc(C(=O)N4CCC[C@@H](N)C4)cc3-c3ccc(C#N)c(F)c3)c(F)c2)CC1=O [Example 68, (R)-4-(3-(3-aminopiperidine-1-carbonyl)-1-(2-fluoro-4-(4-methyl-3-oxopiperazin-1-yl)phenyl)-1H-pyrazol-5-yl)-2-fluorobenzonitrile] |  | < 500 | < 500
9 | CC1(O)CCN(c2ccc(-n3nc(C(=O)N4CCC[C@@H](N)C4)cc3-c3ccc(C#N)c(F)c3)cc2)CC1 [Example 47, (R)-4-(3-(3-aminopiperidine-1-carbonyl)-1-(4-(4-hydroxy-4-methylpiperidin-1-yl)phenyl)-1H-pyrazol-5-yl)-2-fluorobenzonitrile 2,2,2-trifluoroacetate] |  | < 500 | < 500
10 | COc1ccc(-n2cc(C(=O)N3CCCC(N)C3)c(-c3ccc(C#N)cc3)n2)cc1 (stereo not drawn) [Example 87, 4-(4-(3-aminopiperidine-1-carbonyl)-1-(4-methoxyphenyl)-1H-pyrazol-3-yl)benzonitrile] | > 10000 | > 10000 | 
11 | COC1CCN(c2ccc(-n3nc(C(=O)N4CCC[C@H](N)C4)cc3-c3ccc(C#N)c(F)c3)cc2)CC1 [Example 63, (S)-4-(3-(3-aminopiperidine-1-carbonyl)-1-(4-(4-methoxypiperidin-1-yl)phenyl)-1H-pyrazol-5-yl)-2-fluorobenzonitrile 2,2,2-trifluoroacetate] | 500 to 1000 | < 500 | < 500
12 | Cc1ccc(-n2nc(C(=O)N3CCCC(N)C3)cc2-c2ccc(C#N)c(F)c2)cc1 (stereo not drawn) [Example 6, 4-(3-(3-Aminopiperidine-1-carbonyl)-1-(p-tolyl)-1H-pyrazol-5-yl)-2-fluorobenzonitrile] | < 500 | < 500 | 
13 | COc1ccc(-n2nc(C(=O)N3CC(N)C3)cc2-c2ccc(C#N)c(F)c2)cc1 [Example 31, 4-(3-(3-Aminoazetidine-1-carbonyl)-1-(4-methoxyphenyl)-1H-pyrazol-5-yl)-2-fluorobenzonitrile 2,2,2-trifluoroacetate] | > 10000 | > 10000 | 
14 | Cn1ncc2cc(-n3nc(C(=O)N4CCC[C@H](N)C4)cc3-c3ccc(C#N)c(F)c3)ccc21 [Example 42, (S)-4-(3-(3-aminopiperidine-1-carbonyl)-1-(1-methyl-1H-indazol-5-yl)-1H-pyrazol-5-yl)-2-fluorobenzonitrile 2,2,2-trifluoroacetate] | 500 to 1000 | < 500 | < 500
15 | COc1ccc(-n2nc(C(=O)N3CCC[C@@H](N)C3)cc2-c2ccc(C#N)c(F)c2)cc1F [Example 36, (R)-4-(3-(3-aminopiperidine-1-carbonyl)-1-(3-fluoro-4-methoxyphenyl)-1H-pyrazol-5-yl)-2-fluorobenzonitrile] | < 500 | < 500 | 
16 | COc1ccc(-n2nc(C(=O)N3CCCC(NC(=N)N)C3)cc2-c2ccc(C#N)c(F)c2)cc1 (stereo not drawn) [Example 29, 1-(1-(5-(4-Cyano-3-fluorophenyl)-1-(4-methoxyphenyl)-1H-pyrazole-3-carbonyl)piperidin-3-yl)guanidine 2,2,2-trifluoroacetate] | > 10000 | 1000 to 10000 | 
17 | Cn1cc(-c2ccc(-n3nc(C(=O)N4CCC[C@H](N)C4)cc3-c3ccc(C#N)c(F)c3)cc2)cn1 [Example 65, (S)-4-(3-(3-aminopiperidine-1-carbonyl)-1-(4-(1-methyl-1H-pyrazol-4-yl)phenyl)-1H-pyrazol-5-yl)-2-fluorobenzonitrile 2,2,2-trifluoroacetate] | 500 to 1000 | < 500 | < 500
18 | Cn1cc2cc(-n3nc(C(=O)N4CCCC(N)C4)cc3-c3ccc(C#N)c(F)c3)ccc2n1 (stereo not drawn) [Example 40, 4-(3-(3-Aminopiperidine-1-carbonyl)-1-(2-methyl-2H-indazol-5-yl)-1H-pyrazol-5-yl)-2-fluorobenzonitrile] | < 500 | < 500 | 
19 | COc1ccc(-n2nc(NC(=O)[C@H]3CCNC3)cc2-c2ccc(C#N)c(F)c2)cc1 [Example 95, (S)-N-(5-(4-cyano-3-fluorophenyl)-1-(4-methoxyphenyl)-1H-pyrazol-3-yl)pyrrolidine-3-carboxamide 2,2,2-trifluoroacetate] | 1000 to 10000 | < 500 | 
20 | COc1ccc(-n2nc(NC(=O)C3CCNC3)cc2-c2ccc(C#N)c(F)c2)cc1 (stereo not drawn) [Example 93, N-(5-(4-cyano-3-fluorophenyl)-1-(4-methoxyphenyl)-1H-pyrazol-3-yl)pyrrolidine-3-carboxamide 2,2,2-trifluoroacetate] | 1000 to 10000 | < 500 | 
21 | CN1CCN(c2ccc(-n3nc(C(=O)N4CCC[C@H](N)C4)cc3-c3ccc(C#N)c(F)c3)cc2)CC1 [Example 59, (S)-4-(3-(3-aminopiperidine-1-carbonyl)-1-(4-(4-methylpiperazin-1-yl)phenyl)-1H-pyrazol-5-yl)-2-fluorobenzonitrile] | 1000 to 10000 | < 500 | < 500
22 | COc1ccc(-n2nc(C(=O)N[C@@H]3CCC[C@@H](N)C3)cc2-c2ccc(C#N)c(F)c2)cc1 [Example 23, N-((1R,3R)-3-aminocyclohexyl)-5-(4-cyano-3-fluorophenyl)-1-(4-methoxyphenyl)-1H-pyrazole-3-carboxamide 2,2,2-trifluoroacetate] | 1000 to 10000 | 1000 to 10000 | 
23 | COc1ccc(-n2nc(NC(=O)[C@@H]3CCC[C@@H](N)C3)cc2-c2ccc(C#N)c(F)c2)cc1 [Example 89, (1R,3R)-3-amino-N-(5-(4-cyano-3-fluorophenyl)-1-(4-methoxyphenyl)-1H-pyrazol-3-yl)cyclohexane-1-carboxamide 2,2,2-trifluoroacetate] | 1000 to 10000 | < 500 | 
24 | COc1ccc(Cn2nc(C(=O)N3CCC[C@H](N)C3)cc2-c2ccc(C#N)c(F)c2)cc1 [Example 34, (S)-4-(3-(3-aminopiperidine-1-carbonyl)-1-(4-methoxybenzyl)-1H-pyrazol-5-yl)-2-fluorobenzonitrile 2,2,2-trifluoroacetate] | 1000 to 10000 | 500 to 1000 | 
25 | Cc1ccc(-n2nc(-c3ccc(C#N)c(F)c3)cc2C(=O)NC2CCNC2)cc1 (stereo not drawn) [Example 15, 3-(4-Cyano-3-fluorophenyl)-N-(pyrrolidin-3-yl)-1-(p-tolyl)-1H-pyrazole-5-carboxamide] | 1000 to 10000 | 500 to 1000 | 
